Converted amounts (≈) assume the structure as drawn. “And” between values parts separate entries of the source, which are not always exact repeats. Equal entries are not always repeated. Where two headings read alike, the source gives them in different places.
Key:
Cryptococcus neoformans = assay: In vitro susceptibility testing (MIC); type: cell-based
Blastomyces dermatitis = assay: In vitro susceptibility testing (MIC); type: cell-based; conditions: for BHBM 96 Hr 50%: MIC, FTL strains
[1] = system: Golgi morphology of C. neoformans; assay: C6-NBD-ceramide staining of the Golgi; type: cell-based, Cryptococcus neoformans; conditions: 4 μg/ml
Method: The Golgi apparatus of C. neoformans and C. albicans was stained with C6-NBD-ceramide using a previously described protocol (Kmetzsch, L. et al. 2011), based on the property that this fluorescent lipid accumulates at the Golgi of either living or fixed cells (Pagano R. E. et al. 1989). […] Cell suspensions were then washed with the same buffer and incubated with C6-NBD-ceramide ([…]) for 16 h at 4° C. The cells were then incubated with bovine serum albumin (BSA, 1%) at 4° C. for 1 h to remove the excess of C6-NBD-ceramide. […] Louis, USA) for 30 min at room temperature. The cells were washed again with PBS and stained cell suspensions were mounted over glass slides as described above and analyzed under an Axioplan 2 (Zeiss, Germany).

[2] = system: synthesis of GlcCer in C. albicans cells; assay: GlcCer synthesis in C. albicans; type: cell-based, Candida albicans
Pneumocystis murina = assay: In vitro testing by ATP content (luciferin-luciferase); conditions: for inhibition at 0.1 µg/mL / inhibition at 1 µg/mL / inhibition at 10 µg/mL / inhibition at 100 µg/mL: read-out: percentage inhibition of ATP
Solubility = type: physicochemical; conditions: at 1 mg/ml concentration
Candida glabrata = assay: In vitro susceptibility testing (MIC); type: cell-based
Pharmacokinetics of BHBM = type: in vivo, mice; conditions: preliminary studies
[3] = system: S. cerevisiae heterozygote library mutants
Pneumocystis jiroveci = assay: In vitro testing by ATP content (luciferin-luciferase); conditions: for inhibition at 0.1 µg/mL / inhibition at 1 µg/mL / inhibition at 10 µg/mL / inhibition at 100 µg/mL: read-out: percentage inhibition of ATP
E. coli DH5α = assay: Antibacterial activity, LB agar well diffusion; conditions: up to 160 μg/mL, 30° C., 24 hr
[4] = system: intracellular C. neoformans; assay: Intracellular effect in J774.16 macrophages; type: cell-based, Cryptococcus neoformans; conditions: dose-dependent, particularly after 12 and 24 hours
Method: After 2 hours of incubation, about 60-80% of macrophages have at least one C. neoformans cell internalized. At this time, wells were washed to remove extracellular fungal cells and fresh DMEM medium without serum and without mAb 18B7 but containing different concentrations of BHBM was added. […] At selected time points, 0, 6, 12 and 24 hours, extracellular cells were collected by washing and plated onto YPD for CFU counting of extracellular cells. Then, macrophages containing C. neofromans were lysed, collected and serial dilutions were plated onto YPD for CFU counting of intracellular fungal cells.

C. neoformans = assay: In vitro killing assay (time-kill, CFU); type: cell-based, Cryptococcus neoformans
Method: At the illustrated time points, aliquots were taken and diluted and 100 μL was plated onto yeast peptone dextrose (YPD) plates. YPD plates were incubated in a 30° C. incubator and, after 72 hours, colony forming units (CFU) were counted and recorded.

Candida albicans SC-5314 = assay: Animal studies for candidiasis (intravenous infection); type: in vivo, mice
Method: For survival studies, 8-week old CBA/J female mice (Jackson Laboratory) were used. Eight mice per treatment or control group were used. Mice were infected by intravenous inoculation of 100 μL containing 1×10^5 cells of Candida albicans SC-5314 strain. […] Untreated mice, received 100 μL of PBS/0.4% DMSO. Mice were feed ad-libitum and monitored closely for sign of discomfort. At the end of the survival study, tissue burden culture was performed in mice that survived the infection. Mice were sacrificed and their organs were extracted and homogenized in 10 ml sterile PBS using homogenizer. Organ homogenates were diluted 10 times in PBS, and 100 μL was plated on YPD agar plates and incubated at 30° C. for 72 hours for CFU count.

A549 cell line = assay: In vitro toxicity; type: cell-based

Compound: Cc1ccccc1C(=O)NN=Cc1ccc(O)c(Br)c1 [BHBM, N′-(3-bromo-4-hydroxybenzylidene)-2-methylbenzohydrazide]
- in vitro activity (Cryptococcus neoformans): good in vitro activity
- MIC range (Cryptococcus neoformans; 4 MDP Lab strains, clinical isolates resistant to fluconazole): 1 to 2 µg/mL
- MIC range (Cryptococcus neoformans; 8 MDP Lab strains, clinical isolates sensitive to fluconazole): 0.5 to 2 µg/mL
- MIC range (Cryptococcus neoformans; 13 Fungus Testing Lab strains): 0.25 to 8 µg/mL
- MFC (Cryptococcus neoformans; Cryptococcus neoformans, read-out: MFC (minimum fungicidal concentration)): 4 µg/mL (≈ 12 µM)
- BHBM 72 Hr 50% (Cryptococcus neoformans; MIC, FTL strains): 8 and >16 and 16
- sensitivity of Fluconazole-resistant strains (Cryptococcus neoformans; all Fluconazole-resistant C. neoformans strains): sensitive
- in vitro activity (Blastomyces dermatitis): good in vitro activity
- MIC range (Blastomyces dermatitis; 10 Fungus Testing Lab strains): 0.5 to 1 µg/mL
- BHBM 96 Hr 50% (Blastomyces dermatitis): 1 and 2
- BHBM 96 Hr 50% (Blastomyces dermatitis; first listing r7-r78): 1 and 0.5
- Golgi morphology [1]: significant alterations in the Golgi morphology
- synthesis of GlcCer [2]: inhibited in a dose dependent manner
- IC50 (Pneumocystis murina; 24 h, read-out: IC50, P. murina): 1.02 µg/mL (≈ 3.06 µM)
- inhibition at 0.1 µg/mL (Pneumocystis murina; 24 h): 6.64%
- inhibition at 1 µg/mL (Pneumocystis murina; 24 h): 66.2%
- inhibition at 10 µg/mL (Pneumocystis murina; 24 h): 88.2%
- inhibition at 100 µg/mL (Pneumocystis murina; 24 h): 97%
- IC50 (Pneumocystis murina; 48 h, read-out: IC50, P. murina): < 0.01 µg/mL
- inhibition at 0.1 µg/mL (Pneumocystis murina; 48 h): 76%
- inhibition at 1 µg/mL (Pneumocystis murina; 48 h): 87.6%
- inhibition at 10 µg/mL (Pneumocystis murina; 48 h): 94.6%
- inhibition at 100 µg/mL (Pneumocystis murina; 48 h): 98.9%
- IC50 (Pneumocystis murina; 72 h, read-out: IC50, P. murina): < 0.01 µg/mL
- inhibition at 0.1 µg/mL (Pneumocystis murina; 72 h): 63.8%
- inhibition at 1 µg/mL (Pneumocystis murina; 72 h): 74.6%
- inhibition at 10 µg/mL (Pneumocystis murina; 72 h): 93.6%
- inhibition at 100 µg/mL (Pneumocystis murina; 72 h): 99.4%
- IC50 (Pneumocystis murina; 96 h, read-out: IC50, P. murina): 2.02 µg/mL (≈ 6.06 µM)
- inhibition at 0.1 µg/mL (Pneumocystis murina; 96 h): 16.6%
- inhibition at 1 µg/mL (Pneumocystis murina; 96 h): 44.5%
- inhibition at 10 µg/mL (Pneumocystis murina; 96 h): 66.7%
- inhibition at 100 µg/mL (Pneumocystis murina; 96 h): 91.5%
- IC50 (Pneumocystis murina; read-out: activity class by IC50, P. murina): < 0.01 µg/mL
- DMSO required (Solubility): 30%
- MIC range (Candida glabrata; 10 Fungus Testing Lab strains): 0.125 to 2 µg/mL
- MIC (Candida glabrata; Nakaseomyces glabratus, read-out: MIC (moderately active)): 8 to 16 µg/mL (≈ 24 to 48 µM)
- tissue distribution, brain (Pharmacokinetics of BHBM): found in the brain tissue
- Fold increased sensitivity to BHBM ([3]; ACT1 heterozygote mutant): 2.0 Fold
- Fold increased sensitivity to BHBM ([3]; GLC7 heterozygote mutant): 2.1 Fold
- Fold increased sensitivity to BHBM ([3]; GOS1 heterozygote mutant): 2.1 Fold
- Fold increased sensitivity to BHBM ([3]; MTW1 heterozygote mutant): 2.5 Fold
- Fold increased sensitivity to BHBM ([3]; PEP7 heterozygote mutant): 2.2 Fold
- Fold increased sensitivity to BHBM ([3]; REG1 heterozygote mutant): 2.5 Fold
- Fold increased sensitivity to BHBM ([3]; RET2 heterozygote mutant): 3.8 Fold
- Fold increased sensitivity to BHBM ([3]; RET3 heterozygote mutant): 2.0 Fold
- times more sensitive to BHBM ([3]; Rvs167): 1.7 time
- Fold increased sensitivity to BHBM ([3]; SAP4 heterozygote mutant): 2.1 Fold
- Fold increased sensitivity to BHBM ([3]; SEC26 heterozygote mutant): 2. Fold
- Fold increased sensitivity to BHBM ([3]; SEC31 heterozygote mutant): 2.1 Fold
- Fold increased sensitivity to BHBM ([3]; SNF8 heterozygote mutant): 2.1 Fold
- Fold increased sensitivity to BHBM ([3]; SPT4 heterozygote mutant): 2.3 Fold
- Fold increased sensitivity to BHBM ([3]; UBP3 heterozygote mutant): 3.0 Fold
- Fold increased sensitivity to BHBM ([3]; VPS3 heterozygote mutant): 2.0 Fold
- Fold increased sensitivity to BHBM ([3]; YML018C heterozygote mutant): 2.1 Fold
- IC50 (Pneumocystis jiroveci; 24 h, read-out: IC50, P. jiroveci): 0.912 µg/mL (≈ 2.74 µM)
- inhibition at 0.1 µg/mL (Pneumocystis jiroveci; 24 h): 16.1%
- inhibition at 1 µg/mL (Pneumocystis jiroveci; 24 h): 51.5%
- inhibition at 10 µg/mL (Pneumocystis jiroveci; 24 h): 97%
- inhibition at 100 µg/mL (Pneumocystis jiroveci; 24 h): 98.9%
- IC50 (Pneumocystis jiroveci; 48 h, read-out: IC50, P. jiroveci): 0.159 µg/mL (≈ 0.477 µM)
- inhibition at 0.1 µg/mL (Pneumocystis jiroveci; 48 h): 26.2%
- inhibition at 1 µg/mL (Pneumocystis jiroveci; 48 h): 92.6%
- inhibition at 10 µg/mL (Pneumocystis jiroveci; 48 h): 97.8%
- inhibition at 100 µg/mL (Pneumocystis jiroveci; 48 h): 98.6%
- IC50 (Pneumocystis jiroveci; 72 h, read-out: IC50, P. jiroveci): 0.074 µg/mL (≈ 0.222 µM)
- inhibition at 0.1 µg/mL (Pneumocystis jiroveci; 72 h): 39.1%
- inhibition at 1 µg/mL (Pneumocystis jiroveci; 72 h): 87.8%
- inhibition at 10 µg/mL (Pneumocystis jiroveci; 72 h): 94.8%
- inhibition at 100 µg/mL (Pneumocystis jiroveci; 72 h): 98.1%
- IC50 (Pneumocystis jiroveci; 96 h, read-out: IC50, P. jiroveci): 0.072 µg/mL (≈ 0.216 µM)
- inhibition at 0.1 µg/mL (Pneumocystis jiroveci; 96 h): 46.2%
- inhibition at 1 µg/mL (Pneumocystis jiroveci; 96 h): 77%
- inhibition at 10 µg/mL (Pneumocystis jiroveci; 96 h): 90.1%
- inhibition at 100 µg/mL (Pneumocystis jiroveci; 96 h): 98.9%
- IC50 (Pneumocystis jiroveci; read-out: activity class by IC50, P. jiroveci): 0.011 to 0.099 µg/mL (≈ 0.033 to 0.297 µM)
- zone of inhibition (E. coli DH5α): No zone of inhibition
- intracellular replication of C. neoformans [4]: significantly decrease the intracellular replication
- incubation required to kill about 50% of the cells (C. neoformans): at least 72 hours
- type of killing (C. neoformans; time-kill assay): concentration-dependent killing
- mice alive (Candida albicans SC-5314; 1.2 mg/kg/day intraperitoneally, after 21 days of infection): 62.5%
- clearance of infection (tissue burden) (Candida albicans SC-5314; day 21, surviving treated mice): able to clear C. albicans infection
- toxicity (A549 cell line): slight to moderate toxicity
